Laboratory results as given in patent publication US8592172B2, “Bioluminescent assays using cyanobenzothiazole compounds” (Promega Corporation, priority 2010, dated 2013).

Experiments:
mouse liver microsomes = experiment: Utilization of compound 3165 by mouse liver microsomes; type: biochemical; conditions: 50 μM compound 3165, 0.2 mg/mL microsomes, 2 hours at 37° C.
Description: (§1) The ability of endogenously expressed UGT isozymes to utilize compounds 3138 and 3165 as substrates was determined in a similar manner to the assays with recombinant microsomes (Example 1). […] Tissue microsomes were obtained from Xenotech LLC or BD Gentest. Addition of P450-Glo LDR plus cysteine and data analysis was performed in the same manner as for the recombinant Supersome panel screen (Example 1 above).

human liver microsomes = experiment: Utilization of compound 3165 by human microsomes; type: biochemical; conditions: 50 μM compound 3165, 0.2 mg/mL microsomes, 2 hours at 37° C.
Description: as §1

rat liver microsomes = experiment: Utilization of compound 3165 by rat liver microsomes; type: biochemical; conditions: 50 μM compound 3165, 0.2 mg/mL microsomes, 2 hours at 37° C.
Description: as §1

UGT 1A9 = molecular target: T1, UGT 1A9 (Homo sapiens, UniProt O60656); experiment: Recombinant UGT panel, substrate utilization; type: biochemical; conditions: 2 hour incubation at 37° C., recombinant Supersomes, background corrected
T1 construct: purchased BD Gentest; host or cells: insect cells (microsomes)
T1 sequence (O60656 26-530): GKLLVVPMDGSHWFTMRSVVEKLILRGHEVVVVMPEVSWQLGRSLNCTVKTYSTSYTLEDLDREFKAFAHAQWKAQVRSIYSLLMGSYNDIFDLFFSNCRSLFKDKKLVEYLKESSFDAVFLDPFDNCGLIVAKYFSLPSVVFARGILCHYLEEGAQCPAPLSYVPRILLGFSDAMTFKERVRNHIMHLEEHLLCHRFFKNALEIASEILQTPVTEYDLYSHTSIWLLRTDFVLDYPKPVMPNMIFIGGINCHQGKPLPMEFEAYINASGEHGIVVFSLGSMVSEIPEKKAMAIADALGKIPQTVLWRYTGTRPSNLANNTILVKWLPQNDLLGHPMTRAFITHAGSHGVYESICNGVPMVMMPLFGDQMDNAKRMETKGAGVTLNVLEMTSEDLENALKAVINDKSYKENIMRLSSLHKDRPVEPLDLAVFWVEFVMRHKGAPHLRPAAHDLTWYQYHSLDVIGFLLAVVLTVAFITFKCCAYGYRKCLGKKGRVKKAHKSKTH
Description: (§2) During this incubation, the cysteine reacts with the cyanobenzathiozole substrate to yield a D-luciferin derivative. […] Therefore, activity of the UGT enzyme can be measured by analyzing the difference (lower or no output) in relative light units (RLU) of a sample in which glucuronidation occurs compared to a sample that was run under the same conditions with no added UDPGA cofactor.
(§3) In this example, a series of 12 recombinant UGTs expressed in insect microsomes (Supersomes™, BD Gentest™), as well as the control microsomes not expressing the UGT enzyme, were incubated with compound 3138, compound 3478, or compound 3165 as substrates, with or without the UDPGA co-factor.
(§4) After addition of a luciferin detection reagent (LDR) containing D-cysteine, both the substrate and the product were converted to D-luciferins (compound 3478 is already a luciferin derivative before addition of the LDR).
(§5) Reactions were assembled in a white, 96-well plate. Each well contained 20 μL of reaction mixture comprised of 100 mM TES, pH 7.5, 16 mM MgCl2, 50 μg/mL alamethicin (Sigma), 60 μM compound 3138 or compound 3478, and 0.4 mg/mL of control or recombinant UGT membranes. The reactions were initiated by addition of 20 μL of water or 8 mM triammonium UDPGA (Sigma) to each well. The plate was mixed, sealed, and incubated in a 37° C. water bath for 2 hours. After the incubation, 40 μL P450-Glo LDR (Promega) with 20 mM D-cysteine-HCl.H2O (Sigma) was added to each well, the plate was mixed and allowed to incubate at room temperature for 20 minutes. After the incubation was completed, the plate was read on a Veritas™ luminometer (Turner BioSystems, Inc.; Sunnyvale, Calif.).
(§6) For each isozyme, the bioluminescence from the replicates containing UDPGA were subtracted from the average bioluminescence of the replicates without UDPGA. The average Δ RLU value obtained and the standard deviation of the replicates were then divided by the average bioluminescence for samples without UDPGA to obtain the % utilization for each isozyme. The % utilization obtained from the control microsomes was then subtracted from each isozyme to give the background corrected utilization data for those isozymes.

UGT 1A4 = molecular target: T2, UGT 1A4 (Homo sapiens, UniProt P22310); experiment: Recombinant UGT panel, substrate utilization; type: biochemical; conditions: 2 hour incubation at 37° C., recombinant Supersomes
T2 construct: purchased BD Gentest; host or cells: insect cells (microsomes)
T2 sequence (P22310 29-534): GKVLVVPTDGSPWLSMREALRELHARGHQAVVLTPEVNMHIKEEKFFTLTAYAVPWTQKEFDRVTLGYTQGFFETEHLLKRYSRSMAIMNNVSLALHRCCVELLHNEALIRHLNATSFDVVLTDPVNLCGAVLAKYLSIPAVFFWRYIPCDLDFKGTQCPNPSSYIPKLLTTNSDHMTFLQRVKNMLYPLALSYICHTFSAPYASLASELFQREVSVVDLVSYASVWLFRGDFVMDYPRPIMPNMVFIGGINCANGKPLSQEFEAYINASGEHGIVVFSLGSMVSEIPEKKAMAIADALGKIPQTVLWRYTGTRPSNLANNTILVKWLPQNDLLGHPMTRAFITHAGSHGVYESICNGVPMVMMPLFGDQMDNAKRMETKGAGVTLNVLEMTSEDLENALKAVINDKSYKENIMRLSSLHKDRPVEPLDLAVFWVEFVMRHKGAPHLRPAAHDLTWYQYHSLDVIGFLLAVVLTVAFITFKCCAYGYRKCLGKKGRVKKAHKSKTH
Description: as §2, §3, §4, §5, §6

CYP1A2 [1] = experiment: Multiplex human hepatocyte assay, CYP1A2 detected with compound 3019; type: cell-based; conditions: human hepatocytes, 100 μM omeprazole 48 hours
Description: For detection of CYP3A4, the luciferin acetal derivative, Luciferin-IPA (Luc-IPA), was used with bioluminescence detected using LDR without D-cysteine.
Human cryopreserved hepatocytes (Celsis In Vitro Technologies) were thawed and seeded in hepatocyte culture medium in wells of a collagen-coated, 96-well culture plate at ˜50,000 cells per well and kept at 37° C. in standard cell culture incubator with 5% CO2. […] The plate was then removed from the incubator. Fifty μl from each intact cell supernatant was transferred to two-set wells of a white, 96-well luminometer plate (Costar). To one set of wells, 50 μl of LDR with 4 mM D-cysteine was added, while 50 μl of LDR without D-cysteine was added to the other set.

CYP1A2 [2] = experiment: Non-lytic cell-based assay with human hepatocytes, compound 3019; conditions: 100 μM omeprazole 48 hours, 3 μM compound 3019
Description: Human cryopreserved hepatocytes (Celsis lot RTM) were thawed and seeded in hepatocyte culture medium in wells of a collagen-coated, 96-well culture plate at ˜70,000 cells per well and kept at 37° C. in standard cell culture incubator with 5% CO2. The cells were then treated for 48 hours with 100 μM omeprazole or vehicle control (0.1% dimethylsulfoxide) dissolved in hepatocytes culture medium (n═3 for each treatment, mean values and standard deviations are shown). […] 50 μl of the KH incubation buffer was then removed from each well and transferred to a well of a white, 96-well luminometer plate (Costar) where it was also combined with 50 μl of P450-Glo LDR containing 6.6 mM D-cysteine.

Structure (SMILES): N#Cc1nc2ccc(NCc3cccc(N)c3)cc2s1 [Compound 3165]
- utilization (activity) with mouse liver microsomes (mouse liver microsomes): Activity was also seen
- utilization (activity) with human liver microsomes versus human renal or intestinal microsomes (human liver microsomes): Activity was much higher for human liver microsomes
- utilization (activity) with rat liver microsomes (rat liver microsomes): Activity was also seen
- % utilization of substrate by UGT 1A9 (UGT 1A9): to a lesser extent
- utilization of substrate by UGT 1A4 (UGT 1A4): only utilized by UGT 1A4

Structure (SMILES): COc1ccc2[nH]c([S+]([O-])Cc3ncc(C)c(OC)c3C)nc2c1 (centres unmarked) [omeprazole]
- induction of CYP1A2 activity (CYP1A2 [1]; compound 3019 alone (FIG. 34A)): induction of CYP1A2 activity
- induction of CYP1A2 activity (CYP1A2 [1]; compound 3019 in the presence of Luciferin-IPA (FIG. 34C)): induction of CYP1A2 activity
- change of signal versus vehicle (CYP1A2 induction) (CYP1A2 [2]): significantly increased
